Among the test systems are HCC-2998 colon; HCT-15 colon; HL-60(TB) leukemia; IGROV1 ovarian; OVCAR-3 ovarian; SK-MEL-5 melanoma; SNB-75 CNS; U251 CNS; A498 renal; OVCAR-4 ovarian.
Test in all cases: growth of human tumour cells (NCI), 48 h

Molecules are shown by their SMILES.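 Five compound concentrations were applied to cells in 96-well plates for 48 hours; endpoints were derived by simple linear interpolation of the resulting dose-response curve. GI50 is the concentration that inhibits growth by half. At the TGI there is no net growth.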

These results are taken from PubChem BioAssay (NCI).

For `CC(C(=O)n1nnc2ccccc21)N(c1ccccc1)c1ccccc1` (centres undefined), the TGI with HCC-2998 colon, with HCT-15 colon, in the experiment on HL-60(TB) leukemia, in the experiment on IGROV1 ovarian, with OVCAR-3 ovarian and in the experiment with SK-MEL-5 melanoma was > 100 µM each time. Besides, the TGI with SNB-75 CNS and with U251 CNS was > 100 µM each time.
Turning to `c1ccc(Cn2cnc3ccc(-c4nc(-c5ccc6c(c5)ncn6C5CCCCC5)cn5ccnc45)cc32)cc1`, the GI50 with A498 renal is 1.86 µM; with HCC-2998 colon, 1.9 µM; in the experiment on HL-60(TB) leukemia it was 2.88 µM; in the experiment with IGROV1 ovarian, 2.14 µM; in the experiment with OVCAR-3 ovarian, 2.27 µM; in the experiment on OVCAR-4 ovarian, 3.06 µM. Also, the TGI in the experiment with A498 renal was 3.57 µM; in the experiment on HCC-2998 colon, 3.41 µM; in the experiment on HL-60(TB) leukemia it was 6.65 µM; in the experiment on IGROV1 ovarian, > 100 µM; in the experiment on OVCAR-3 ovarian, 5.8 µM; in the experiment with OVCAR-4 ovarian, > 100 µM.
Turning to `OC(CN1CC1)C(O)CN1CC1` (centres undefined), the GI50 in the experiment on A498 renal, with HCT-15 colon, in the experiment on HL-60(TB) leukemia, with IGROV1 ovarian, with OVCAR-3 ovarian and in the experiment on OVCAR-4 ovarian was > 50 µg/mL in each case. Moreover, the GI50 in the experiment with SK-MEL-5 melanoma and in the experiment with U251 CNS was > 50 µg/mL in each case. The TGI with A498 renal, in the experiment on HCT-15 colon, in the experiment on HL-60(TB) leukemia, with IGROV1 ovarian, in the experiment with OVCAR-3 ovarian and in the experiment with OVCAR-4 ovarian was > 50 µg/mL each time. For the same molecule, the TGI with SK-MEL-5 melanoma and in the experiment on U251 CNS was > 50 µg/mL in each case.
For `CC1(Cc2ccccc2)NC(=S)NC1=O` (centres undefined), the TGI with HCC-2998 colon, in the experiment on HL-60(TB) leukemia, in the experiment with SNB-75 CNS and in the experiment with U251 CNS was > 100 µM each time.
Take `Cn1c2ccccc2c2c(=O)c3ccccc3[nH]c21`: the GI50 is 18 µM with A498 renal; 40.1 µM in the experiment on HCT-15 colon; 70.6 µM in the experiment on HL-60(TB) leukemia; 64.3 µM in the experiment with IGROV1 ovarian; > 100 µM with OVCAR-3 ovarian; 42.9 µM with SK-MEL-5 melanoma. The GI50 with SNB-75 CNS was 84.7 µM; in the experiment on U251 CNS it was 35.8 µM. The TGI was 64.8 µM with A498 renal; > 100 µM in the experiment on HCT-15 colon; > 100 µM with HL-60(TB) leukemia; > 100 µM in the experiment with IGROV1 ovarian; > 100 µM with OVCAR-3 ovarian; > 100 µM with SK-MEL-5 melanoma. Besides, the TGI in the experiment on SNB-75 CNS and in the experiment with U251 CNS was > 100 µM each time.
Consider `CN(C)Cc1c[nH]c2c(NCCN)c3c(c(NCCN)c12)C(=O)c1ccccc1C3=O`, for which the GI50 was 2.45 µM in the experiment with HCC-2998 colon; 6.97 µM in the experiment on HCT-15 colon; 2.1 µM with IGROV1 ovarian; 1.74 µM with OVCAR-3 ovarian; 8.07 µM in the experiment on OVCAR-4 ovarian; 3.86 µM in the experiment on SK-MEL-5 melanoma. In addition, the GI50 was 6.13 µM in the experiment on SNB-75 CNS and 0.394 µM in the experiment on U251 CNS. Also, the TGI with HCC-2998 colon is 8.37 µM; in the experiment with HCT-15 colon, 20 µM; in the experiment with IGROV1 ovarian, 10.5 µM; in the experiment with OVCAR-3 ovarian, 6.43 µM; with OVCAR-4 ovarian, 29.6 µM; in the experiment with SK-MEL-5 melanoma, 9.14 µM. For the same molecule, the results for the TGI in the experiment on SNB-75 CNS and in the experiment on U251 CNS were 17 µM and 1.87 µM, respectively.
On to `COc1ccccc1-c1cc(=O)c2ccc(C)nc2[nH]1`, for which the TGI in the experiment with A498 renal, with HCC-2998 colon, in the experiment with HCT-15 colon, in the experiment on HL-60(TB) leukemia, in the experiment with IGROV1 ovarian and with OVCAR-3 ovarian was > 100 µM in each case. Further, the TGI in the experiment on OVCAR-4 ovarian, in the experiment on SK-MEL-5 melanoma and with U251 CNS was > 100 µM throughout. Moreover, the GI50 with HL-60(TB) leukemia is 73.8 µM; with OVCAR-3 ovarian, > 100 µM; in the experiment on SK-MEL-5 melanoma it was 51.6 µM; in the experiment with U251 CNS, > 100 µM.
Take `C=CCOC(=O)CC[N+]1=CCC(c2ccccc2)(c2ccccc2)O1`: the TGI in the experiment on A498 renal, in the experiment on HCC-2998 colon, with HCT-15 colon, in the experiment on IGROV1 ovarian, in the experiment on OVCAR-3 ovarian and with OVCAR-4 ovarian was > 100 µM throughout. Further, the TGI in the experiment with SK-MEL-5 melanoma and in the experiment on U251 CNS was > 100 µM in each case.
For the molecule `C=CCC1[C@@H](C(C)(C)C(C(C)=O)C(=O)C(=O)OC)OC(C(C)(C)C)N1C(=O)OC` (some centres undefined), the TGI in the experiment on A498 renal, in the experiment with HCC-2998 colon, with HCT-15 colon, with OVCAR-3 ovarian, in the experiment with OVCAR-4 ovarian and with SK-MEL-5 melanoma was > 100 µM throughout. Also, the TGI in the experiment on SNB-75 CNS and with U251 CNS was > 100 µM each time.
Consider `COc1cc2cnc3c4ccccc4ccc3c2cc1OC`, for which the TGI in the experiment on A498 renal, in the experiment on HCC-2998 colon, in the experiment with IGROV1 ovarian, in the experiment on OVCAR-3 ovarian, in the experiment on OVCAR-4 ovarian and in the experiment on SK-MEL-5 melanoma was > 100 µM throughout. Besides, the TGI with SNB-75 CNS and with U251 CNS was > 100 µM each time.
Turning to `NC(=O)/C=C/C(=O)O`, the TGI in the experiment on HCT-15 colon, with HL-60(TB) leukemia, in the experiment on IGROV1 ovarian, in the experiment with OVCAR-4 ovarian, with SK-MEL-5 melanoma and in the experiment on SNB-75 CNS was > 5000 µM each time. Further, the TGI with U251 CNS is > 5000 µM.
As to `Cc1cn(C2OC(C)(CO)C(O)C2O)c(=O)[nH]c1=O` (centres undefined), the TGI in the experiment with A498 renal, in the experiment with HCC-2998 colon, in the experiment with HCT-15 colon, in the experiment on IGROV1 ovarian, in the experiment with OVCAR-3 ovarian and in the experiment with OVCAR-4 ovarian was > 100 µM in each case. In addition, the TGI with SK-MEL-5 melanoma, with SNB-75 CNS and in the experiment on U251 CNS was > 100 µM each time.
For the molecule `Cc1nnc(N/N=C(/C(=O)C(C#N)c2ccccc2)C(C#N)c2ccccc2)n1N` (centres undefined), the TGI is 11 µM in the experiment with HCC-2998 colon; > 53 µM with HCT-15 colon; 57.8 µM in the experiment on HL-60(TB) leukemia; > 95.9 µM with IGROV1 ovarian; 53.3 µM in the experiment on OVCAR-3 ovarian; > 54.9 µM with OVCAR-4 ovarian. Further, the TGI is 32.7 µM with SK-MEL-5 melanoma, 34.7 µM in the experiment with SNB-75 CNS and > 83.1 µM in the experiment on U251 CNS.
